This note sets out measurements from patent US12274703B2, “Compositions and methods of treatment for neurological disorders comprising a dementia” (Gliapharm SA, priority 2017, dated 2025).

Where a name gives a salt, the structure may show the parent alone.

One test relates to primary astrocytes. The experiment in a line: High throughput screening for lactate secretion: acidification of extracellular medium (SNARF5). It is filed as cell-based, mouse. Particulars: Mus musculus, Astrocyte, 1.5 h; Appendix I; primary screening, 10 uM, 90 min; relative to positive control; read-out: Score. The method, then:
Primary cultures of cerebrocortical astrocytes were obtained from 1-2-day-old OF1 mouse pups (Charles River Laboratories). Briefly, cortices were isolated and minced in small pieces under a dissecting microscope. The cells were incubated for 30 min at 37° C. in a solution containing 20 U/ml of papain enzyme (Worthington Biochemical), L-cysteine 1 mM (Sigma), and 10 kU/ml DNase I (Worthington Biochemical) for an enzymatic dissociation. Papain activity was stopped by the addition of fetal calf serum (FCS) to the solution, and a single-cell suspension was then obtained by mechanical dissociation, which consisted in cells trituration in a DMEM (D7777, Sigma-Aldrich) medium (supplemented with 44 mm NaHCO3, and 10 ml/L antibiotic/antimycotic solution) containing 10% FCS. The cells were seeded at an average density of 6×10^4 cells/cm^2 in poly-D-lysine-coated 96, 12 or 6-well culture plates, depending on their use, and incubated at 37° C. in a humidified atmosphere containing 5% CO2/95% air. Culture medium was renewed twice per week. Cells were stimulated and harvested between DIV14 and DIV17, when confluence and cell growth were optimal.
Secretion of lactate in a high-throughput screening (HTS) fashion was measured indirectly through the acidification of extracellular medium. To this end, primary astrocytes grown in 96-well plates for 17 days were stimulated with the compounds as listed herein.
After washing the cells twice with stimulation medium (DMEM (D5030, Sigma), 3 mM NaHCO3 and 5 mM Glucose) at 37° C., cells were stimulated with the compounds at a final concentration of 10 uM (1% DMSO final) in 50 ul per well of stimulation medium supplemented with 10 uM of the extracellular pH sensor SNARF-5F %-(AND-6)-CAR (Life Technologies Corporation). Each compound was tested in two different plates for duplicates.
After 90 min stimulation, fluorescence was read at exc. (excitation) 480 nm/emm. (emission) 580 nm and at exc 480 nm/emm. 630 nm. The ratio of fluorescence between 630 nm and 580 emission values, which represents extracellular pH, was calculated.
In each plate, 8 wells were used for negative controls (DMSO) and 8 wells were used for positive controls (CCCP 2 uM in DMSO). Z prime values were calculated for each of the plates tested and values <0 were discarded.
The average and SD of compounds' values tested in duplicates were calculated, and compound was noted as HIT when the difference between compound's average and negative control's average was greater than three times the sum of compound's SD and negative controls' SD. Only scores greater than 40% were considered as lead hits for the CDC54K library; for the remaining libraries, all hits were considered. Scores are calculated as the % of activity compared to the positive control in each plate (which is 100%).
Primary screening hits were cherry picked on new plates and confirmed for SNARF5 effect, after having discarded those compounds that are fluorescent (exc. 480 nm/emm. 580 nm or 630 nm) before stimulation. Extracellular medium was next analyzed for extracellular lactate quantification for secondary screening.
Identification of lactate-enhancing drugs with high throughput screening (HTS) experiments on astrocytes primary cultures using extracellular pH dye (SNARF5F 5-(and 6)-carboxylic acid) for 90 min. The procedure is described in Material and Methods (2. Cell culture, 2.1. HTS for lactate secretion and 2.2. Extracellular lactate quantification).
The procedure was performed as follows: • Primary screening: acidification of the extracellular medium • Primary screening confirmation: acidification of the extracellular medium, removal of compounds with fluorescent activity at exc. 480 nm/emm. 580 nm or 630 nm. • Secondary screening: dosage of extracellular lactate
For `O=C(NCc1cccc(F)c1)NC1CCN(c2ncnc3c2CCC3)C1` (centres unmarked) [T636-1243], the Emax at 10 µM stood at 45.5%. On to `CCOc1ccc(C2(O)C[N+](c3ccccc3C)=C3CCCCN32)cc1` (centres unmarked) [F0524-0511], for which the Emax at 10 µM came to 70%. As to `Cc1cccc(NS(=O)(=O)c2cc(-c3noc(C)n3)cs2)c1` [L287-0220], the Emax at 10 µM was 35.2%. The same measure, in the same setting: for `CCc1ccc(C2(O)C[N+](c3ccccc3OC)=C3CCCCN32)cc1` (centres unmarked) [K404-0672] the value was 125%; for `O=S(=O)(Nc1ccc(F)c(Cl)c1)c1ccc2ccccc2c1` [T5231424], 67.3%; for `COc1ccc(C2(O)C[N+](c3ccccc3C)=C3CCCCCN32)cc1OC` (centres unmarked) [K404-0906], 19.1%. With `Cc1cccc([N+]2=C3SCCCN3C(O)(c3ccc(OC(F)F)cc3)C2)c1` (centres unmarked) [K404-0400], the Emax at 10 µM was 36.3%. Still for that read-out and setting: for `O=C(C[n+]1cc(-c2ccc(Br)cc2)n2c1CCCCC2)c1ccccc1` [T0500-4648] the value was 109%.

Regarding `O=C(NC1CC1)c1cccc(NS(=O)(=O)c2ccc(N3CCCC3=O)cc2)c1` [T5618591], the Emax at 10 µM was 41.6%. Still for that read-out and setting: for `c1csc(C(Nc2ncnc3sccc23)C2CC2)c1` (centres unmarked) [T5713637] the value was 114%. Regarding `COc1ccccc1S(=O)(=O)Nc1ccc2nc(C)sc2c1` [T5246417], the Emax at 10 µM came out at 24.1%. The same measure, in the same setting: next, `Cc1oc2ncnc(N3CCCC(C(=O)NCc4ccccc4)C3)c2c1C` (centres unmarked) [F228-0365]: 103%; `CC(=O)N1CCc2sc(S(=O)(=O)NCc3ccccc3)cc2C1` [P025-0168]: 14.5%. Turning to `c1ccc(CN2CCC(Nc3ncnc4c3CCC4)CC2)nc1` [T636-1715], the Emax at 10 µM amounted to 0%.

In the case of `OC1(c2ccccc2)C[N+](c2ccccc2)=C2SCCCN21` (centres unmarked) [T0507-8442], the Emax at 10 µM came to 26.8%. Regarding `Clc1ccc(Nc2ncnc3sccc23)cc1` [T5393195], the Emax at 10 µM amounted to 36.9%. In the case of `Cc1ccc(CNS(=O)(=O)c2ccc3onc(C(=O)N4CCCCC4)c3c2)cc1` [L995-0386], the Emax at 10 µM worked out at 18.8%. Still for that read-out and setting: next, `Cc1ccc(CNS(=O)(=O)c2cc(-c3noc(C4CCCC4)n3)cs2)cc1` [L287-1641]: 77.2%; `Cc1oc2ncnc(N3CCCC(C(=O)NCc4ccccn4)C3)c2c1C` (centres unmarked) [F228-0350]: 95.8%.

With `COc1ccc(C2(O)C[N+](c3ccccc3C)=C3CCCCN32)cc1` (centres unmarked) [F0524-0507], the Emax at 10 µM amounted to 61.2%.

In the case of `O=C(c1noc2ccc(S(=O)(=O)Nc3cccc(F)c3)cc12)N1CCCC1` [L995-0058], the Emax at 10 µM was 42.3%. Same read-out and setting: for `COc1cccc(-c2cc3n(n2)CCCN(Cc2ccncc2)C3)c1` [T202-0973] the value was 34.1%; for `Cc1cccc([N+]2=C3SCCCN3C(O)(c3ccc(F)cc3)C2)c1` (centres unmarked) [K404-0394], 34.7%. With `Cc1ccc(CN2CCN(c3ncnc4c3CCC4)CC2)o1` [T636-1937], the Emax at 10 µM worked out at 74%. Consider `O=C(c1ccco1)N1CCCn2nc(-c3ccc(C(F)(F)F)cc3)cc2C1` [T200-0370], for which the Emax at 10 µM came out at 56.2%. The same measure, in the same setting: next, `O=C(C1CCOC1)N1CCCn2nc(-c3cccc(Cl)c3)cc2C1` (centres unmarked) [P218-0884]: 0%. As to `CC(=O)c1cccc(NC(=O)C(C)Sc2ncnc3ccsc23)c1` (centres unmarked) [T5627721], the Emax at 10 µM came to 72.4%. Still for that read-out and setting: for `Cc1ccc(F)cc1NC(=O)Cc1nn(C)c(=O)c2ccccc12` [T6302989] the value was 40.5%; for `O=S(=O)(Nc1ccc2[nH]ncc2c1)c1ccc(C(F)(F)F)cc1` [T5653029], 36.2%.

Consider `COc1ccc(OC)c([N+]2=C3CCCCCN3C(O)(c3ccc(C)cc3)C2)c1` (centres unmarked) [K404-0855], for which the Emax at 10 µM was determined as 58.5%. With `Cc1ccccc1NS(=O)(=O)c1ccc2onc(C(=O)N3CCCCC3)c2c1` [L995-0405], the Emax at 10 µM came out at 21.3%. The same measure, in the same setting: for `CCOc1ccc(C2(O)C[N+](c3ccccc3OC)=C3CCCCN32)cc1` (centres unmarked) [K404-0673] the value was 93.1%; for `CC1c2ccsc2CCN1c1ncnc2sccc12` (centres unmarked) [T5630309], 72.2%; for `c1ccc(C(Nc2ncnc3sccc23)C2CC2)cc1` (centres unmarked) [T6016487], 126%. Still for that read-out and setting: for `COc1ccc(C2(O)C[N+](c3cc(C)ccc3C)=C3CCCCCN32)cc1OC` (centres unmarked) [K404-0852] the value was 0%. Same read-out and setting: for `CCNC(=O)C1CCCN(c2ncnc3oc(C)c(C)c23)C1` (centres unmarked) [F228-0534] the value was 35.4%. `O=S(=O)(NC1CCCC1)c1cc(-c2noc(C3CCC3)n2)cs1` [L287-1221]: the Emax at 10 µM came to 51.6%. With `COc1ccc(C2SCCN2S(=O)(=O)c2ccc(C)c(C)c2)cc1OC` (centres unmarked) [F1462-0491], the Emax at 10 µM worked out at 27.2%. Still for that read-out and setting: next, `CCOc1ccc(-c2cc3n(n2)CCCN(C(=O)c2cccnc2)C3)cc1` [T200-0707]: 16.7%; `CCN(Cc1ccccc1)S(=O)(=O)c1cc(-c2noc(C3CCCC3)n2)cs1` [L287-1758]: 0%. The same measure, in the same setting: next, `CC(=O)N1CCCc2cc(S(=O)(=O)NCc3ccc(Cl)cc3)ccc21` [G855-0033]: 34.7%; `COc1ccc(C)cc1NS(=O)(=O)c1cc(-c2ccnn2C)cs1` [L924-0830]: 78.2%. Still for that read-out and setting: for `O=C(Cc1cccc(F)c1)N1CCC(Nc2ncnc3c2CCC3)C1` (centres unmarked) [T636-2360] the value was 44%. As to `c1ccc2c(c1)CN(c1ncnc3sccc13)CCN2` [T6768300], the Emax at 10 µM is 34.4%. `COc1ccc(C2SCCN2S(=O)(=O)c2cccc(C)c2)cc1OC` (centres unmarked) [T5463658]: the Emax at 10 µM was 27.2%. On to `Cc1cccc([N+]2=C3CCCCN3C(O)(c3ccc(Cl)cc3)C2)c1` (centres unmarked) [K404-0800], for which the Emax at 10 µM worked out at 97.3%. The same measure, in the same setting: for `Cc1cccc([N+]2=C3CCCCCN3C(O)(c3cccc([N+](=O)O)c3)C2)c1` (centres unmarked) [K404-0915] the value was 0%; for `Cc1ccc(C)c([N+]2=C3CCCCN3C(O)(c3ccc(F)cc3)C2)c1` (centres unmarked) [K404-0697], 59.6%; for `COc1ccc(C2(O)C[N+](c3cc(C)ccc3C)=C3SCCCN32)c(F)c1` (centres unmarked) [K404-0183], 89.6%. For `O=S(=O)(Nc1ccc(O)c(Cl)c1)c1ccc2ccccc2c1` [T0517-8939], the Emax at 10 µM is 76.8%. Same read-out and setting: for `FC(F)(F)c1cccc(CNc2ncnc3sccc23)c1` [T5346988] the value was 99.6%; for `CC(=O)N1CCc2sc(S(=O)(=O)Nc3cc(C)cc(C)c3)cc2C1` [P025-0080], 33.1%.

In the case of `O=C(c1cccc(F)c1)N1CCC(Nc2ncnc3c2CCC3)CC1` [T636-1601], the Emax at 10 µM turned out to be 0%.

For `O=C(C[n+]1cc(-c2ccccc2)n2c1CCC2)c1ccc(Br)cc1` [T0502-5560], the Emax at 10 µM was found to be 102%.

The test is the same for the next values; noted with them: Mus musculus, Astrocyte, 1.5 h; Prestwick hits; 10 uM, 90 min; activity relative to positive control CCCP 2 uM; read-out: Score.
`CCCCC(CC)CNC(=N)NC(=N)NCCCCCCNC(=N)NC(=N)NCC(CC)CCCC` (centres unmarked) [Alexidine dihydrochloride]: the Emax at 10 µM is 38.9%.

For `CC(COc1ccccc1)NC(C)C(O)c1ccc(O)cc1` (centres unmarked) [Isoxsuprine hydrochloride], the Emax at 10 µM stood at 5.5%. On the same count and under the same terms, next, `CCC(=O)O[C@@H](O[P@](=O)(CCCCc1ccccc1)CC(=O)N1C[C@H](C2CCCCC2)C[C@H]1C(=O)O)C(C)C` [Fosinopril]: 5.71%; `Clc1ccc(COC(Cn2ccnc2)c2ccc(Cl)cc2Cl)c(Cl)c1` (centres unmarked) [Miconazole]: 7.35%.

Staying with this test, now noted: Mus musculus, Astrocyte, 1.5 h; Prestwick hits; 10 uM, 90 min; relative to positive control CCCP 2 uM; read-out: HTS Score (lactate).
With `CCCCC(CC)CNC(=N)NC(=N)NCCCCCCNC(=N)NC(=N)NCC(CC)CCCC` (centres unmarked) [Alexidine dihydrochloride], the Emax at 10 µM was 38.9%. As to `CC(COc1ccccc1)NC(C)C(O)c1ccc(O)cc1` (centres unmarked) [Isoxsuprine hydrochloride], the Emax at 10 µM was 5.5%. The same measure, in the same setting: for `CCC(=O)O[C@@H](O[P@](=O)(CCCCc1ccccc1)CC(=O)N1C[C@H](C2CCCCC2)C[C@H]1C(=O)O)C(C)C` [Fosinopril] the value was 5.7%; for `Clc1ccc(COC(Cn2ccnc2)c2ccc(Cl)cc2Cl)c(Cl)c1` (centres unmarked) [Miconazole], 7.3%.
